“And” between values parts separate entries of the source, which are not always exact repeats. Equal entries are not always repeated.
Key:
[1] = test system: mouse colon cancer CT-26 cells; assay: In vivo antitumor efficacy, subcutaneous allograft tumor model of colon cancer CT-26 cells in BALB/c mice; details: for Tumor volume on day 0: baseline at grouping, mean ± standard error, n=6; for TGI: day 15, vs control group; for TGI / Tumor volume on day 15: IN10018 25 mg/kg, combination 20+25 mg/kg, p.o. QD; for Tumor volume on day 15: day 15 after administration by groups
Procedure: (§1) 500 CO2 incubator. The cells were passaged by routine digestion with trypsin-EDTA two to three times a week. When the cells were in the exponential growth phase with 80%-0% saturation, the cells were harvested, counted and inoculated.
0.1 mL of a cell suspension containing 3×10^5 cells was inoculated subcutaneously into the right back of each mouse. When the tumor volume reached ˜59 mm^3 (on day 12 after cell inoculation), the mice were randomized into groups for administration according to the tumor volume, and the grouping information is shown in Table 2.
The tumor diameter was measured with a vernier caliper three times a week. The tumor volume was calculated by the formula: V=0.5×a×b^2, where a and b indicated the long and short diameter of the tumor, respectively.
Statistical analysis was performed based on tumor volume and tumor weight at the end of the trial using Prism Graphpad software. Comparisons among multiple groups were analyzed using Two-way ANOVA, Fisher's LSD test method. P<0.05 was considered a significant difference.

[2] = test system: human non-small cell lung cancer HCC827 cells; assay: In vivo antitumor efficacy, BALB/c-nude mouse subcutaneous xenograft tumor model of HCC827 cells; details: for tumor growth inhibition compared with the blank control group / TGI / Tumor volume on day 32 / Tumor volume on day 37: AZD9291 3 mg/kg, IN10018 25 mg/kg, combination 3+25 mg/kg; for tumor growth inhibition compared with the blank control group: statistical difference from control; for Tumor volume on day 0: baseline at grouping, n=5; for Tumor volume on day 0 / Tumor volume on day 32 / Tumor volume on day 37: mean ± SD; for TGI: day 32, vs control group; for TGI / Tumor volume on day 32 / Tumor volume on day 37: PO QD; for Tumor volume on day 32: day 32 after administration by groups; for Tumor volume on day 37: day 37 after administration by groups
Procedure: as §1, with “5%” for “500”, “80%-90%” for “80%-0%”, “inoculated. 0.1 mL of a cell suspension containing 5×10^6 cells was inoculated subcutaneously into the right back of each mouse.” for “inoculated.”
The experiment criteria was to investigate whether the tumor growth was inhibited, delayed or cured. Tumor diameter was measured three times a week using vernier calipers. Tumor volume was calculated according to the following formula: V=0.5×a×b^2, where a and b indicated the long diameter and short diameter of the tumor, respectively.
The tumor suppressive efficacy of the compounds was evaluated by TGI (%), which reflects the tumor growth inhibition rate.
Statistical analysis was performed based on tumor volume at the end of the trial using Prism Graphpad software. Comparisons among multiple groups were analyzed using Two-way ANOVA, Fisher's LSD test method, and P<0.05 was considered a significant difference. Comparisons between the two groups were analyzed using the t-test, Mann Whitney test method test, and P<0.05 was considered a significant difference.

lung cancer KPL cells = assay: Lung cancer KPL cells incubated with drug for 48 hours, observed under microscope; type: cell-based; details: 48 h incubation; IN10018 10 μM, AZD9291 10 μM, Almonertinib 4.7 μM, Alflutinib 4.7 μM, single or combined
[3] = Body weight and survival of HCC827 tumor-bearing BALB/c-nude mice during dosing; type: in vivo
Procedure: The use and welfare of laboratory animals were in accordance with the AAALAC regulations. Animals were monitored daily for health and death. Routine examinations included observation of tumor growth and the effects of drug treatment on the animals' daily behavior such as behavioral activities, food and water intake (visual inspection only), weight changes, appearance signs or other abnormalities. Animal deaths and side effects in each group were recorded based on the number of animals in each group.
The assay was carried out according to the dosing regimen, during which the animals were observed daily for feeding and drinking, and their body weights were recorded three times a week.

| Compound | tumor growth inhibition compared with the blank control group ([1]; AZD9291 20 mg/kg, AZD9291+IN10018 20+25 mg/kg, statistical difference from control) | Tumor volume on day 0 [1] [mm^3] | TGI ([1]; AZD9291 20 mg/kg) [%] | Tumor volume on day 15 ([1]; AZD9291 20 mg/kg) [mm^3] | tumor growth inhibition compared with the blank control group [2] | Tumor volume on day 0 [2] [mm^3] | TGI [2] [%] | Tumor volume on day 32 [2] [mm^3] | Tumor volume on day 37 [2] [mm^3] | cell status observed under microscope (lung cancer KPL cells) | Body weight on day 0 ([3]; baseline, day of administration by groups, mean ± SD) | Body weight on day 37 ([3]; day 37, AZD9291 3 mg/kg, IN10018 25 mg/kg, combination 3+25 mg/kg PO QD, mean ± SD) | Rate of change in body weight ([3]; day 37 vs day 0, AZD9291 3 mg/kg, IN10018 25 mg/kg, combination 3+25 mg/kg) [%] | Animal Survival ([3]; number of animals surviving on day 0/after administration, AZD9291 3 mg/kg, IN10018 25 mg/kg, combination 3+25 mg/kg) |
| --- | --- | --- | --- | --- | --- | --- | --- | --- | --- | --- | --- | --- | --- | --- |
| C=CC(=O)Nc1cc(Nc2nccc(-c3cn(C)c4ccccc34)n2)c(OC)cc1N(C)CCN(C)C [AZD9291, Osimertinib] | obvious tumor growth inhibition | 37.9 ± 12.9 | 33.2 | 1046.3±407.8 | obvious tumor growth inhibition | 148.6 ± 59.6 | 107.7 | 20.3±4.7 | 17.0±6.7 | poor cell status | 19.9 g and 19.9 ± 0.9 g | 19.4 g and 19.4 ± 1.4 g | −2.2 | 5/5 |
| C=CC(=O)Nc1cc(Nc2nccc(-c3cn(C)c4ccccc34)n2)c(OCC(F)(F)F)nc1N(C)CCN(C)C [Alflutinib] | – | – | – | – | – | – | – | – | – | poor cell status | – | – | – | – |
| C=CC(=O)Nc1cc(Nc2nccc(-c3cn(C4CC4)c4ccccc34)n2)c(OC)cc1N(C)CCN(C)C [Almonertinib] | – | – | – | – | – | – | – | – | – | poor cell status | – | – | – | – |
| COc1cc(C(=O)NC2CCN(C)CC2)c(F)cc1Nc1ncc(C(F)(F)F)c(Oc2cccc3c2C(=O)N(C)C3)n1 [IN10018] | – | 39.2 ± 17.9 | −14.5 | 1766.9±732.5 | obvious tumor growth inhibition | 147.7 ± 56.3 | 104.1 | 79.2±51.8 | 69.6±46.6 | better cell status | – | – | – | – |

Reference: patent publication US11986477B2, “Drug combination and use for treating tumors” (INXMED (NANJING) CO., LTD., priority 2022, dated 2024)
